Data taken from patent US20120184586A1, “DESFERRITHIOCIN POLYETHER ANALOGUES AND USES THEREOF” (University of Florida Research Foundation, Inc., priority 2009, published 2012).
Where “and” joins values, the source holds several entries; their conditions need not be identical. Equal entries are not always repeated. Entries after “also recorded” stand apart in the source; their conditions may differ. Where two headings read alike, the source gives them in different places.

Key:
[1] = system: iron-overloaded Cebus apella primates; details: cited from earlier work
[2] = 2:1 complex with Fe(III); cited from earlier work
[3] = historical findings from references; cited from earlier work
[4] = system: non-iron-overloaded, bile duct-cannulated rats; details: historical data, cited from earlier work
[5] = system: non-iron-overloaded, bile duct-cannulated rats; experiment: Chelator-induced iron clearance (ICE, biliary ferrokinetics) in non-iron-overloaded, bile duct-cannulated rodents; format: in vivo, rat (male Sprague-Dawley); details: for time of maximum iron clearance (MIC), biliary ferrokinetics / time until iron excretion is over / returned to baseline, biliary ferrokinetics / ICE (iron-clearing efficiency), rodents: bile duct-cannulated rats; for time of maximum iron clearance (MIC), biliary ferrokinetics / time until iron excretion is over / returned to baseline, biliary ferrokinetics: 300 μmol/kg PO; for ICE relative to parent ligand 2 (times) / ICE relative to trioxa polyether 4 (times): rodents, po 300 μmol/kg
[6] = trial abandoned by Genzyme; cited from earlier work
[7] = system: iron-overloaded Cebus apella primates; experiment: Chelator-induced iron clearance (ICE) in iron-overloaded Cebus apella primates; format: in vivo; details: for performance ratio (PR), mean ICEprimates/ICErodents: current study; for ICE (iron-clearing efficiency), primates: iron-overloaded C. apella
Protocol: The drugs were administered in capsules (6, 7), solubilized in either 40% Cremophor RH-40/water (1), distilled water (4), or were given as their monosodium salts, prepared by the addition of 1 equiv of NaOH to a suspension of the free acid in distilled water (2, 3, 5). The efficiency of each compound was calculated by subtracting the 24-h iron excretion of control animals from the iron excretion of the treated animals. The number was then divided by the theoretical output; the result is expressed as a percent. […] The relative percentages of the iron excreted in the bile and urine are in brackets. ^cIn the primates [n=4 (1, 3, 4, 5, 6 in capsules, 7) or 7 (2, 6 as the monosodium salt)], the chelators were given po at a dose of 75 μmol/kg (5-7) or 150 μmol/kg (1-4). The drugs were administered in capsules (6^d, 7), solubilized in either 40% Cremophor RH-40/water (1, 3), distilled water (4), or were given as their monosodium salts, prepared by the addition of 1 equiv of NaOH to a suspension of the free acid in distilled water (2, 5, 6^e).
Iron chelators in a Cebus apella monkey model. […] Briefly, the monkeys are iron overloaded with iron dextran administered intravenously to result in an iron loading of about 500 mg per kg of body weight. At least 20 half-lives, 60 days, elapse before the animals are used in experiments evaluating iron chelators. The iron chelators are suspended in vehicle and administered either p.o. or s.c. Fecal and urine samples are collected at 24 hour intervals beginning 4 days prior to the administration of an iron chelator and continued for 5 days after the chelator is administered. Iron concentrations in stool and urine are determined by flame atomic absorption spectroscometry. Iron chelator efficiency is calculated by dividing the net iron clearance [total iron excretion (stool plus urine) minus background] by the theoretical iron clearance and multiplying by 100. The theoretical clearance of the iron chelator is generated on the basis of a 2:1 ligand/iron complex.
Drug preparation and administration. In the iron clearing experiments, the rats were given 5-7 orally at a dose of 300 μmol/kg. Ligand 5 was given by gavage as its monosodium salt (prepared by the addition of 1 equiv of NaOH to a suspension of the free acid in distilled water), while 6 and 7 were given in capsules. The primates were given 5-7 orally at a dose of Ligand 5 was given to the primates by gavage as its monosodium salt. Analogue 6 was given to the monkeys by gavage as its monosodium salt, as well as in capsules. Ligand 7 was given to the monkeys in capsules.

rats = experiment: Tissue iron decorporation in rats after 10 days of oral dosing; format: in vivo, rat (male Sprague-Dawley)
Source text: Tissue iron decorporation: As described above, rodents were given acid 6 or 7 orally at a dose of 384 μmol/kg/day×10 days. Ethyl ester 7 was also given at a dose of 192 μmol/kg/d×10 days. On day 11, the animals were euthanized and the kidney, liver, pancreas, and heart were removed.
Male Sprague-Dawley rats (300-350 g) were fasted overnight and were given the chelators first thing in the morning. […] Ligand 6 was given to the rats orally once daily at a dose of 384 μmol/kg/d×10 d. Note that this dose is equivalent to 100 mg/kg/day of the DFT sodium salt. The chelator (6) was administered orally in gelatin capsules (n=5), or by gavage as its monosodium salt (n=10). The ethyl ester (7) was administered orally in capsules once daily at a dose of 192 (n=6) or 384 μmol/kg/d (n=5)×10 d. Age-matched rats (n=12) served as untreated controls. The rats were euthanized 24 h post-drug (day 11) and extensive tissues were collected for histopathological analysis. Samples of the kidney, liver, heart and pancreas were reserved and assessed for their iron content.
The initial step in the tissue preparation involved removing any obvious membranes or fat. A sample of each tissue (300-350 mg) was weighed and transferred to acid-washed hydrolysis (pressure) tubes. Note that the same region of each tissue was always utilized. […] The tubes were then sealed and placed in a 120° C. oil bath for 5 h; the tubes were vented as necessary. Then, the tubes were removed from the oil bath and allowed to cool to room temperature. The temperature of the oil bath was decreased to 100° C. Once the samples were cooled, 0.7 mL of hydrogen peroxide (30%) was added to the hydrolysis tube. The samples were placed back in the oil bath and cooked overnight. The samples were then removed from the oil bath and allowed to cool to room temperature. The hydrolysis tubes were vortexed and the digested samples were poured into 50-mL volumetric flasks. The samples were brought to volume using distilled water. Finally, the samples were poured into a syringe and filtered using 0.45μ 30 mm, Teflon syringe filters. Iron concentrations were determined by flame absorption spectroscopy as presented in other publications.^40,41

[8] = Hydrolysis of ester 7 to acid 6 in rat plasma; format: in vitro ADME; details: 37° C., solubilized in DMSO
Protocol: (§1) The profound difference between the ICE of the parent acid chelator 6 versus that of the ester 7 in rodents and primates is consistent with two possible explanations: 1) The ester is poorly absorbed from the gastrointestinal (GI) tract in the primates, or 2) The primate non-specific serum esterases simply may not cleave ester 7 to the active chelator acid 6. An experiment was performed using rat and monkey plasma in an attempt to determine if the relatively poor ICE of 7 in the primates was due to interspecies differences in hydrolysis. When 7 was solubilized in DMSO and incubated at 37° C. with rat plasma, all of the ester had been converted to the active acid 6 within 1-2 h. This was also the case when the experiment was carried out with plasma from Cebus apella monkeys. Thus, there is no difference in the hydrolysis of 7 between the rats and the primates. Therefore, the poor ICE of 7 in the monkeys is consistent with the idea that the ester is absorbed much more effectively from the GI tract of the rodents than from the GI tract of the primates. Control experiments were also performed in which saline was used in place of the rat or monkey plasma.
(§2) Plasma analytical methods. […] The chelator concentrations were calculated from the peak area fitted to calibration curves by non-weighted least-squares linear regression with Shimadzu CLASS-NP 7.4 Chromatography Software. […]

[9] = Control incubation of ester 7 in saline in place of plasma; format: physicochemical; details: solubilized in DMSO
Protocol: as §1
The ethyl ester (7) was solubilized in DMSO and further diluted with distilled water to provide a 100 μM solution. A 25 μL aliquot of the drug solution was added to centrifuge tubes containing 100 μL of rat or primate plasma. […]

[10] = Octanol/water partition (log Papp), shake flask direct method, Tris buffer pH 7.4; details: from log Papp values
Protocol: The efficiency of each compound was calculated by subtracting the 24-h iron excretion of control animals from the iron excretion of the treated animals. The number was then divided by the theoretical output; the result is expressed as a percent. […] The relative percentages of the iron excreted in the bile and urine are in brackets. ^cIn the primates [n=4 (1, 3, 4, 5, 6 in capsules, 7) or 7 (2, 6 as the monosodium salt)], the chelators were given po at a dose of 75 μmol/kg (5-7) or 150 μmol/kg (1-4).
The partition values between octanol and water (at pH 7.4, Tris buffer) were determined using a “shake flask” direct method of measuring log Papp values.^52 The fraction of drug in the octanol is then expressed as log Papp.

[11] = Hydrolysis of ester 7 to acid 6 in Cebus apella monkey plasma; format: in vitro ADME; details: 37° C., solubilized in DMSO
Protocol: as §1, §2

[12] = bile duct-cannulated rats, po 300 μmol/kg
[13] = po 75 μmol/kg by gavage as monosodium salt
[14] = 384 μmol/kg/day × 10 days po as sodium salt
[15] = 384 μmol/kg/day × 10 days po in capsules
[16] = 192 μmol/kg/d × 10 days po in capsules

What does the source list for COCCOCCOCCOc1ccc(O)c(C2=NC(C)(C(=O)O)CS2)c1 (single isomer, unassigned) [5′-isomer of 4]?
performance ratio (PR), mean ICEprimates/ICErodents ([1]; previously reported (ref 46)): 1; ICE (iron-clearing efficiency), primates ([1]; previously reported, dose not stated): 8.1±2.8%

What does the source list for C[C@]1(C(=O)O)CSC(c2ncccc2O)=N1 [ligand 1, (S)-4,5-dihydro-2-(3-hydroxy-2-pyridinyl)-4-methyl-4-thiazolecarboxylic acid]?
log β2 [2]: 29.6; ICE (iron-clearing efficiency), primates ([1]; iron-overloaded C. apella, po 150 μmol/kg, historical data): 16%; nephrotoxicity [3]: severely nephrotoxic; ICE (iron-clearing efficiency), rodents ([4]; bile duct-cannulated rodent model, po 150 μmol/kg): 5.5%

For C[C@]1(C(=O)O)CSC(c2ccc(O)cc2O)=N1 [ligand 2, (S)-2-(2,4-dihydroxyphenyl)-4,5-dihydro-4-methyl-4-thiazolecarboxylic acid], which “time of maximum iron clearance (MIC), biliary ferrokinetics” value (“time of maximum iron clearance (MIC)” for short) [5] is on record?
Its value is 3 h.

And the “time until iron excretion is over / returned to baseline, biliary ferrokinetics” value [5]?
Its value is 9 h.

What about the clinical trial outcome [6] of the same compound?
Its clinical trial outcome is “abandoned by Genzyme because of renal toxicity”.

And the “ICE (iron-clearing efficiency), rodents” value [4, 12]?
The value was 1.1±0.8%.

With COc1ccc(C2=N[C@@](C)(C(=O)O)CS2)c(O)c1 [ligand 3, (S)-4,5-dihydro-2-(2-hydroxy-4-methoxyphenyl)-4-methyl-4-thiazolecarboxylic acid] as the compound, how does the nephrotoxicity [3] read?
The nephrotoxicity was “very nephrotoxic; also recorded: unacceptably nephrotoxic”.

For COCCOCCOCCOc1ccc(C2=N[C@@](C)(C(=O)O)CS2)c(O)c1 [ligand 4, (S)-4,5-dihydro-2-[2-hydroxy-4-(3,6,9-trioxadecyloxy)phenyl]-4-methyl-4-thiazolecarboxylic acid, reference compound], which “time of maximum iron clearance (MIC)” value [5] is on record?
The value was 3 h.

And the “time until iron excretion is over / returned to baseline, biliary ferrokinetics” value [5]?
Its value is 12 h.

And the “ICE relative to parent ligand 2 (times)” value [5]?
The value was “five times greater”.

And the “ICE relative to longer analogue 5 (times)” value ([7]; primates)?
The value was 2.5.

What about the nephrotoxicity [3] of the same compound?
The nephrotoxicity was “virtually absent of any nephrotoxicity”.

And the “ICE (iron-clearing efficiency), rodents” value [4, 12]?
The value was 5.5±1.9%.

For COCCOCCOCCOCCOc1ccc(C2=N[C@@](C)(C(=O)O)CS2)c(O)c1 [ligand 5, (S)-4,5-dihydro-2-[2-hydroxy-4-(3,6,9,12-tetraoxamidecyloxy)phenyl]-4-methyl-4-thiazolecarboxylic acid], which “time of maximum iron clearance (MIC)” value [5] is on record?
Its value is 6 h.

What about the “time until iron excretion is over / returned to baseline, biliary ferrokinetics” value [5] of the same compound?
Its value is 24 h.

And the “ICE (iron-clearing efficiency), rodents” value ([5]; po 300 μmol/kg by gavage as monosodium salt)?
The value was 12.0±1.5%.

And the “ICE relative to parent ligand 2 (times)” value [5]?
The value was ~11.

What about the “ICE relative to trioxa polyether 4 (times)” value [5] of the same compound?
Its value is “twice as effective”.

What about the “performance ratio (PR), mean ICEprimates/ICErodents” value [7] of the same compound?
Its value is 0.82.

And the “ICE (iron-clearing efficiency), primates” value [7, 13]?
The value was 9.8±1.9%.

Which results are given for COCCOCCOc1ccc(C2=N[C@@](C)(C(=O)O)CS2)c(O)c1 [ligand 6, (S)-4,5-dihydro-2-[2-hydroxy-4-(3,6-dioxaheptyloxy)phenyl]-4-methyl-4-thiazolecarboxylic acid]?
ICE (iron-clearing efficiency), rodents ([5]; po 300 μmol/kg in capsules): > 26%; ICE (iron-clearing efficiency), rodents ([5]; po 300 μmol/kg in capsules, listed as 6): 26.7±4.7%; ICE relative to trioxa polyether 4 (times) [5]: nearly five times greater; performance ratio (PR), mean ICEprimates/ICErodents [7]: 1.0; ICE (iron-clearing efficiency), primates [7, 13]: 28.7±12.4%; ICE (iron-clearing efficiency), primates ([7]; po 75 μmol/kg in capsules): 26.3±9.9% and > 26%; decrease of cardiac iron vs untreated controls (rats; [14]): 9.9%; reduction of liver iron vs untreated controls (rats; [14]): > 35%; reduction of pancreatic iron vs untreated controls (rats; [14]): significant reduction in pancreatic iron; reduction of renal iron content vs untreated controls (rats; [14]): 24.8%; decrease of cardiac iron vs untreated controls (rats; [15]): 6.9%; reduction of liver iron vs untreated controls (rats; [15]): > 35%; reduction of pancreatic iron vs untreated controls (rats; [15]): but not when it was dosed in capsules; reduction of renal iron content vs untreated controls (rats; [15]): 7.4%

Which “ICE (iron-clearing efficiency), rodents” value ([5]; po 300 μmol/kg in capsules) does the source give for CCOC(=O)[C@@]1(C)CSC(c2ccc(OCCOCCOC)cc2O)=N1 [ligand 7, ethyl (S)-4,5-dihydro-2-[2-hydroxy-4-(3,6-dioxaheptyloxy)phenyl]-4-methyl-4-thiazolecarboxylate] here?
The value was 25.9±6.5%.

And the “ICE relative to parent ligand 2 (times)” value [5]?
Its value is “approximately 24”.

And the “time for conversion of all of the ester to the active acid 6” value [8]?
The value was 1 to 2 h.

What about the “performance ratio (PR), mean ICEprimates/ICErodents” value [7] of the same compound?
The value was 0.33.

And the “ICE (iron-clearing efficiency), primates” value ([7]; po 75 μmol/kg in capsules)?
Its value is 8.8±2.2%.

What about the “ICE relative to acid 6” value ([7]; primates) of the same compound?
The value was “only one third”.

And the “stability of the ester in saline” value [9]?
Its value is “all of the drug remained in the form of the ester”.

What about the “fold difference in partition” value ([10]; 7 vs 1) of the same compound?
Its value is “greater than 58.000 fold”.

What about the “times more lipophilic than the parent 2” value ([10]; 7 vs 2) of the same compound?
Its value is 11,220.

What about the “time for conversion of all of the ester to the active acid 6” value [11] of the same compound?
Its value is 1 to 2 h.

What about the “decrease of cardiac iron vs untreated controls” value (rats; [16]) of the same compound?
The value was “Neither dose was associated with a reduction”.

What about the “reduction of liver iron vs untreated controls” value (rats; [16]) of the same compound?
The value was 27%.

And the “reduction of pancreatic iron vs untreated controls” value (rats; [16])?
Its value is “Neither dose was associated with a reduction”.

And the “reduction of renal iron content vs untreated controls” value (rats; [16])?
The value was 12.6%.

And the “decrease of cardiac iron vs untreated controls” value (rats; [15])?
Its value is “Neither dose was associated with a reduction”.

And the “reduction of liver iron vs untreated controls” value (rats; [15])?
The value was 59.1%.

And the “reduction of pancreatic iron vs untreated controls” value (rats; [15])?
Its value is “Neither dose was associated with a reduction”.

And the “reduction of renal iron content vs untreated controls” value (rats; [15])?
Its value is 32.1%.
